Activity calls are given as the source filed them. How the calls were made is not given here.
Assay: mitochondrial fusion inhibitors, confirmation, cell-based, chemical genetic, wild-type and mutant (AID 1361)
Conditions: Cell-based mitochondrial fusion phenotype, imaging
[1] = mutant cells, measured here: mutant cell line IC50

Structure (SMILES)	IC50 (WT cells)	IC50 [1] [µM]
CC1CN(c2ncnc3c2c(-c2ccccc2)cn3-c2ccc(F)cc2)CC(C)O1 (stereo unspecified)	21.4 µM	> 25
C=CCOc1c(Br)cc(/C=N/Nc2ccc(C(=O)O)cc2)cc1OCC	22.1 µM	> 25
O=S(Cc1ccc(Br)cc1)Cc1nnc(SCc2ccc(Br)cc2)n1-c1ccccc1 (stereo unspecified)	13.7 µM	> 25
COC(=O)Cn1ccc(N(C)C)c(C#N)c1=O	> 25 µM (inactive)	> 25
O=C(Nc1cccc(Cl)c1N1CCCC1)c1ccc(Br)o1	18.1 µM	> 25
Fc1ccccc1Nc1nc2c(s1)CCc1ccccc1-2	17.7 µM	19.1
CCCCCC(=O)Nc1cc(N(C)C)nc2ccccc12	> 25 µM (inactive)	> 25
CCOC(=O)C1=NN(c2ccccc2)C2(S1)SC(C(C)=O)=C(C)N2c1ccccc1 (stereo unspecified)	7.84 µM	> 25
CCc1cc(-c2n[nH]c(=S)n2CC(C)C)cs1	> 25 µM (inactive)	> 25
CCCCOC(=O)c1ccc(NC(=O)c2ccccc2OC)cc1	> 25 µM (inactive)	> 25
CCOC(=O)c1c(NC(=O)OC)sc(C(=O)N(C)C)c1C	> 25 µM (inactive)	> 25
Cn1cc(C(=O)c2ccc(Cl)cc2Cl)cc1C(=O)O	> 25 µM (inactive)	> 25
Cc1cc(NC(=S)N(Cc2ccc(Cl)cc2)Cc2ccc(C(=O)O)cc2)ccc1Cl	17.6 µM	> 25
c1n[nH]c(NCc2ccc3c(c2)OCO3)n1	> 25 µM (inactive)	> 25
COc1ccc(NP(=O)(Oc2ccc(Cl)cc2)Oc2ccc(Cl)cc2)cc1OC	12.6 µM	> 25
COC(=O)CN1C(c2cccc(Cl)c2)=Nc2ccc(Cl)cc2C1c1ccccc1 (stereo unspecified)	7.73 µM	24
O=C1c2ccccc2C(=O)N1CCN1CCCCC1	> 25 µM (inactive)	> 25
Cc1ccc(CNCC(O)(c2ccccc2)c2ccc(F)cc2)cc1 (stereo unspecified)	> 25 µM (inactive)	> 25
CCCOC(=O)CN1C(=O)c2ccccc2C1=O	> 25 µM (inactive)	> 25
COCCn1c(=S)[nH]c2cc(C(=O)N3CCc4ccccc43)ccc2c1=O	> 25 µM (inactive)	> 25
O=C(N=Nc1c(O)n(Cc2ccccc2)c2ccccc12)c1cc2ccccc2cc1O	> 25 µM (inactive)	> 25

Structure (SMILES)	IC50 (WT cells)	IC50 [1] [µM]
COc1ccc(C(C)(C)C)cc1NC(=O)c1cncc(Br)c1	> 25 µM (inactive)	> 25
O=C(Nc1nnc(C2CC2)s1)c1cc(-c2ccccc2)nn1-c1ccccc1	8.41 µM	17
CCN(Cc1ccccc1)c1ccc(/C=N/NC(=S)NC(C)C)cc1	5.04 µM	> 25
Clc1ccc(C(c2nnnn2C2CCCCC2)N(Cc2cccnc2)Cc2ccco2)cc1 (stereo unspecified)	15.5 µM	> 25
CC(C)(C)n1nnnc1C(c1cccnc1)N(Cc1ccccc1)Cc1cccs1 (stereo unspecified)	9.97 µM	> 25
CC(C)CNC(=S)N1CCN(C(c2ccccc2)c2ccccc2)CC1	14.7 µM	> 25
Cc1cc(Cl)ccc1NC(=S)NCCC(c1ccccc1)c1ccccc1	4.91 µM	> 25
Cc1cc(C)n(CC(O)Cn2c3ccc(Br)cc3c3cc(Br)ccc32)c(=O)n1 (stereo unspecified)	11 µM	> 25
N=c1c2c(n(Cc3ccc(F)cc3)c3c1CCC3)CCC2	11.2 µM	> 25
COc1ccc(C2=Nc3cccc4cccc(c34)N2)cc1	> 25 µM (inactive)	> 25
CCC[C@@H]1C[C@@]1(CCC)[C@@H](NP(=O)(c1ccccc1)c1ccccc1)c1ccc(C(=O)OC)cc1	12.6 µM	> 25
Cc1ccc(-c2nc(N)sc2-c2ccc(C)cc2)cc1	9.96 µM (inactive)	9.46
CCOc1ccccc1NC(=O)C(OC(=O)c1ccc(O)cc1)c1ccccc1 (stereo unspecified)	9.83 µM	> 25
c1ccc(Cn2c(CNc3nc4ccccc4n3CCN3CCCCC3)nc3ccccc32)cc1	> 25 µM (inactive)	> 25
COCCCn1c(SCC(=O)NC(C)(C)C)nnc1-c1ccccc1	> 25 µM (inactive)	> 25
CCOC(=O)C1=NN(c2cccc(C)c2)C2(S1)SC(C(C)=O)=C(C)N2c1ccccc1 (stereo unspecified)	8.2 µM	> 25
Cc1cnc(C(=O)OCC(=O)Nc2ccc(Cl)cc2)cn1	> 25 µM (inactive)	> 12.5
O=C(CSCC(=O)N1CCCCC1)Nc1nc(-c2ccccc2)c(-c2ccccc2)s1	10.7 µM	> 25
CC1=CC(C)(C)N(S(=O)(=O)c2ccc(C)cc2)c2cc(C)ccc21	11.1 µM	> 25
COc1ccc2nc(NC(=O)c3cccc(OCc4c(C)noc4C)c3)sc2c1	> 25 µM (inactive)	> 25
COc1cc(C(=O)OC2CC3CCC2(C)C3(C)C)ccc1OC(C)=O (stereo unspecified)	20 µM	> 25

Structure (SMILES)	IC50 (WT cells)	IC50 [1] [µM]
O=C(CSc1nc2cc(Cl)ccc2o1)NCCc1ccccc1	> 25 µM (inactive)	> 25
Cc1ccc(Cn2nc3c(cc2=O)CCc2ccccc2-3)cc1	> 25 µM (inactive)	> 25
CCCC[C@@H]1C[C@H]1[C@@H](NC(=O)c1ccco1)c1ccc(Cl)cc1	21.4 µM	> 25
Cc1ccccc1COC(=O)c1nn(-c2ccccc2)nc1N	> 25 µM (inactive)	> 25
CN(c1cccc(NC(=O)Nc2ccc(Cl)cc2)c1)S(C)(=O)=O	> 25 µM (inactive)	> 25
CC(C)C(=O)Nc1cc(S(=O)(=O)Nc2ccc(Cl)cc2)ccc1Cl	22 µM	> 25
O=C(Nc1cc(Cl)ccc1Oc1ccccc1)c1ccc(F)cc1	22.7 µM	> 25
COc1ccc(S(=O)(=O)N2CCC[C@H]2C(=O)NC2=NCCS2)cc1	> 25 µM (inactive)	> 25
COc1ccc(C2N(c3ccc(Cl)cc3)N=C(C(C)=O)N(C)N2C(C)=O)cc1 (stereo unspecified)	15.8 µM	> 25
O=C(CCC1N=C2c3ccccc3N=C(SCc3cccc(Cl)c3)N2C1=O)NCc1ccco1 (stereo unspecified)	> 25 µM (inactive)	> 25
O=C(NC1CCS(=O)(=O)C1)c1ccc(-c2ccc(Br)cc2)o1 (stereo unspecified)	> 25 µM (inactive)	> 25
Cn1c(Oc2ccc3c(c2)OCO3)nc2c1c(=O)n(Cc1ccccc1)c(=O)n2C	> 25 µM (inactive)	> 25
CCn1c(O)c(C(c2ccccn2)c2c(O)n(CC)c(=S)[nH]c2=O)c(=O)[nH]c1=S	> 25 µM (inactive)	> 25
C/C(=N\N=C(/N)SC1CC(=O)N(c2cccc(Cl)c2)C1=O)c1cccs1 (stereo unspecified)	> 25 µM (inactive)	> 25
O=C(CN1CCN(c2ccccn2)CC1)N1c2ccccc2Sc2ccc(C(F)(F)F)cc21	16 µM	> 25
CC(=O)Oc1ccccc1N(C(C)=O)S(=O)(=O)c1ccc2ccccc2c1	> 25 µM (inactive)	> 25
CSc1nnc(C2CCNCC2)n1C	> 25 µM (inactive)	> 25
Cc1cc(Br)c(OCc2ccc(C(=O)N/N=C3\CC4CC=CC34)cc2)c(Br)c1 (stereo unspecified)	7.88 µM	14.2
O=c1c2ccccc2n(Cc2ccc(F)cc2)c(=O)n1C1CCCC1	17 µM	> 25
CCCCCCCOC(=O)c1nc(Cl)c(Cl)c(N)c1Cl	18.9 µM	> 25
CCCn1c2c(c(O)c(C(=O)Nc3nccs3)c1=O)CCCC2	12.7 µM	> 25

Structure (SMILES)	IC50 (WT cells)	IC50 [1] [µM]
CCOC(=O)c1cnc(-n2nc(C)cc2C)nc1NNc1cc(C)nc(-c2ccccc2)n1	16.3 µM	> 25
Cc1ccc(-c2nc3cc(Br)cnc3nc2-c2ccc(C)cc2)cc1	9.24 µM	> 25
CC(NC(=O)COc1ccccc1-c1ccccc1)c1ccccc1 (stereo unspecified)	15 µM	> 25
Cc1ccc(C2=NN(S(=O)(=O)c3ccccc3)C(c3ccccc3O)C2)cc1 (stereo unspecified)	3.89 µM	24.4
S=c1[nH]nc(-c2ccc3ccccc3n2)n1-c1cc(Cl)cc(Cl)c1	13.7 µM	> 25
CCOC(=O)c1[nH]c2ccc(OC)cc2c1NC(=O)C(C)N1CCC2(CC1)OCCO2 (stereo unspecified)	> 25 µM (inactive)	> 25
CSc1nncn1/N=C/c1ccc2c(c1)OCO2	> 25 µM (inactive)	> 25
O=C(c1csc(Nc2ccccc2Cl)n1)N1CCCC1	> 25 µM (inactive)	> 25
CCCCCCP(=O)(O)c1ccccc1	> 25 µM (inactive)	> 25
O=C(NCc1nnc(SCc2ccc(C(F)(F)F)cc2)n1-c1ccccc1)C12CC3CC(CC(C3)C1)C2	18 µM	> 25
Clc1ccc(CNc2nc(CN3CCOCC3)nc3scc(-c4ccccc4)c23)cc1	13.2 µM	17.9
O=C(/C=C/Nc1cccc(C(F)(F)F)c1)C(F)(F)F	> 25 µM (inactive)	> 25
Cc1ccc(Cl)cc1N1CCN(C(=O)c2cccc3c(=O)c(C)c(-c4ccccc4)oc23)CC1	9.75 µM	> 25
CCS(=O)(=O)Nc1ccc(-c2cc(-c3ccccc3)c3cc(C)ccc3n2)cc1	7.26 µM	> 25
CC(c1ccccc1)N(CC(=O)NC1CCCCC1)S(=O)(=O)c1cccc(C(F)(F)F)c1 (stereo unspecified)	12.4 µM	> 25
COC(=O)C1=C(CSc2nc3ccccc3o2)NC(=O)NC1c1cc(C)ccc1C (stereo unspecified)	> 25 µM (inactive)	> 25
O=C(c1ccc2c(c1)OCO2)N(Cc1ccco1)C1(C(=O)NC2CCCCC2)CCCCC1	> 25 µM (inactive)	> 25
COc1cc(NC(=S)NCCC(c2ccccc2)c2ccccc2)cc(OC)c1	4.78 µM	> 25
CCOc1cc(C2Nc3ccccc3C(=O)N2c2ccccc2OC)ccc1O (stereo unspecified)	> 25 µM (inactive)	> 25
COc1ccc(C(=O)N(Cc2nc(-c3ccc(C)cc3)no2)C2CCCCC2)cc1OC	20.2 µM	> 25
